Consider 12 compounds from patent US10506807B2, “Halogen-substituted phenoxyphenylamidines and the use thereof as fungicides” (priority 2015, dated 2019).

For one data set, the system named is soy bean plants. Nature of the data set: Plant compatibility test using soy bean plants. Type of data set: in vivo. To be noted: soy bean plants sprayed, 1000 ppm active compound, evaluated 6 days after application; 0% no damages, 100% totally damaged. The procedure:
Plant Compatibility Test Using Soy Bean Plants • Solvent: 24.5 parts by weight of acetone • 24.5 parts by weight of dimethylacetamide • Emulsifier: 1 part by weight of alkylaryl polyglycol ether To produce a suitable preparation of active compound, 1 part by weight of active compound is mixed with the stated amounts of solvent and emulsifier, and the concentrate is diluted with water to the desired concentration. Young plants are sprayed with the preparation of active compound at the stated application rate. The plants are then placed in a greenhouse at approximately 21° C. and a relative atmospheric humidity of approximately 80%. The test is evaluated 6 days after application and comprises plant damages like leaf deformation, chlorosis, necrosis, shoot damage or stunting. The results are summarized in table V. 0% means no damages are observed, while 100% means that the plants are totally damaged.

The nature of data set [1]: Log P by HPLC on reversed phase columns (EEC directive 79/831 Annex V.A8). Type of data set: physicochemical. To be noted: LC-UV. The procedure: Measurement of Log P values was performed according to EEC directive 79/831 Annex V.A8 by HPLC (High Performance Liquid Chromatography) on reversed phase columns with the following methods: • ^[a] Log P value is determined by measurement of LC-UV, in an acidic range, with 0.1% formic acid in water and acetonitrile as eluent (linear gradient from 10% acetonitrile to 95% acetonitrile). • ^[b] Log P value is determined by measurement of LC-UV, in a neutral range, with 0.001 molar ammonium acetate solution in water and acetonitrile as eluent (linear gradient from 10% acetonitrile to 95% acetonitrile). […] Lambda-max-values were determined using UV-spectra from 200 nm to 400 nm and the peak values of the chromatographic signals.

Data set [2] in a line: Photolysis stability test. Type of data set: physicochemical. From the text:
Stability Towards Photolysis—Photolysis Stability Test
The stability towards photolysis of the phenylamidines described in the prior art is good but an improved stability towards photolysis may be an advantage as it could offer a longer lasting efficacy when applied to plants by foliar application. The improved stability towards photolysis was proven by a […] as described below: To produce a suitable preparation of active compound for the photolysis stability test, a 1000 ppm stock solution (1 mg/mL) of active compound in acetonitrile is prepared. Aliquots of 25 μL of this stock solution are pipetted in three wells of a Bio-one microtiter plate (MTP) UVStar 96 (Fa. Greiner, Art. No. 655801). The MTP is dried overnight in the dark and then irradiated at 30° C. and 480 W/m^2 with a UV irradiation device SUNTEST XLS+ or SUNTEST CPS (Fa. Atlas). The amount A of the active compound is analyzed by HPLC (UV-peak areas at 210 nm) at five points in time t: 0 h, 2 h, 4 h, 6 h, 24 h by using the following method: 200 μL acetonitrile is added in the respective well of the MTP and the MTP is sealed with a Bio-one sealing foil, viewseal 80/140 mm (Fa. Greiner, Art. No. 676070). The MTPs are sonicated for 3 minutes and analysed by HPLC. The half-life time (T) of each active compound is calculated via linear regression by using the following equations (first order degradation assumed): […]
In table IV the results of the photolysis stability test are shown for the compounds (I-01), (I-02), (I-03) and (I-04). […] This increased chemical stability towards photolysis will be of advantage as it will offer a longer lasting efficacy when applied to plants by foliar application compared to known amidines. The data are to be seen merely by way of example and are not limiting for the purposes of the invention.

Data set [3] can be described thus: Hydrolysis stability test in homogeneous aqueous solution. Type of data set: physicochemical. From the text: Stability Towards Hydrolysis in Homogeneous Aqueous Solution—Hydrolysis Stability Test The chemical stability towards hydrolysis of the phenylamidines described in the prior art is good but an improved stability may be an advantage during the preparation and formulation processes in a large scale. The improved stability towards hydrolysis was proven by a hydrolysis stability test as described below: To produce a suitable preparation of active compound for the hydrolysis stability test, a 1000 ppm stock solution (1 mg/mL) of active compound in acetonitrile is prepared. Three aliquots of 100 μL are pipetted into HPLC vials and diluted with 750 μL acetonitrile. In each vial 850 μL of the appropriate buffer solution (pH4, pH7 and pH9, CertiPUR, Fa. Merck) is added. The buffer containing HPLC vials are incubated in a heated sample tray at 50° C. for 24 hours. The amount A of the active compound is analyzed by HPLC (UV-peak areas at 210 nm) at eight points in time t: 0 min, 140 min, 350 min, 560 min, 770 min, 980 min, 1190 min, 1400 min. The half-life time (T1/2) of each active compound is calculated via linear regression by using the following equations (first order degradation assumed): [formula] [formula] In table III the results of the hydrolysis stability test are shown for the compounds (I-01), (I-02), (I-03) and (I-04) at various pH-values. […] 337 known from WO2008/110278. […] This increased stability will be of advantage during the preparation and formulation processes in a large scale compared to known amidines. The data are to be seen merely by way of example and are not limiting for the purposes of the invention.

The test system of another data set is Phakopsora pachyrhizi. Nature of the data set: In vivo preventive test on Phakopsora (soybeans). To be noted: 100 ppm of active ingredient, preventive spray on soybeans, evaluated 7 days after inoculation. The procedure:
Example: In Vivo Preventive Test on Phakopsora Test (Soybeans)
• Solvent: 24.5 parts by weight of acetone • 24.5 parts by weight of dimethylacetamide • Emulsifier: 1 part by weight of alkylaryl polyglycol ether
To produce a suitable preparation of active compound, 1 part by weight of active compound is mixed with the stated amounts of solvent and emulsifier, and the concentrate is diluted with water to the desired concentration.
To test for preventive activity, young plants are sprayed with the preparation of active compound at the stated rate of application. After the spray coating has dried on, the plants are inoculated with an aqueous spore suspension of the causal agent of soybean rust (Phakopsora pachyrhizi) and stay for 24 h without light in an incubation cabinet at approximately 24° C. and a relative atmospheric humidity of 95%.
The plants remain in the incubation cabinet at approximately 24° C. and a relative atmospheric humidity of approximately 80% and a day/night interval of 12 h.
The test is evaluated 7 days after the inoculation. 0% means an efficacy which corresponds to that of the untreated control, while an efficacy of 100% means that no disease is observed.

Where [4] appears, read: acidic range, 0.1% formic acid in water and acetonitrile as eluent, read-out: LogP [a].
[5] abbreviates: pH 7, read-out: T1/2 (pH 7) (converted).
[6] abbreviates: pH 9, read-out: T1/2 (pH 9) (converted).
[7] abbreviates: neutral range, 0.001 molar ammonium acetate solution in water and acetonitrile as eluent, read-out: LogP [b].

Where two headings read alike, the source gives them in different places.

Compound `CCN(C)/C=N/c1cc(C)c(Oc2ccccc2F)cc1C` [Compound no.337] registered a Necrosis in % in the data set on soy bean plants of 90%.

Regarding `CCN(C)/C=N/c1cc(C)c(Oc2ccccc2)cc1C` [Compound no. 1], the Necrosis in % in the data set with soy bean plants came out at 90%.

In the case of `CCN(C)/C=N/c1cc(C)c(Oc2ccccc2F)cc1Cl` [Example I-01, N′-[2-chloro-4-(2-fluorophenoxy)-5-methylphenyl]-N-ethyl-N-methylimidoformamide], in data set [1] (setting [4]), the chromatographic logP was found to be 1.66. This compound yielded a half-life at 25 µg/well in data set [2] above 200 h. The figures for the half-life at 58.8 µg/mL in data set [3] (setting [5]) and in data set [3] (setting [6]) were 52 h and 47 h, respectively. In the data set on Phakopsora pachyrhizi, the efficacy result is “at least 70%”. Besides, the Necrosis in % with soy bean plants came to 20%.

Take `CCN(C)C=Nc1cc(C)c(Oc2ccccc2F)cc1C(F)F` [Example I-02, N′-[2-(difluoromethyl)-4-(2-fluorophenoxy)-5-methylphenyl]-N-ethyl-N-methylimidoformamide]: the chromatographic logP in data set [1] (setting [4]) was 1.76. The half-life at 25 µg/well in data set [2] was 185 h. Further, the half-life at 58.8 µg/mL was 160 h in data set [3] (setting [5]) and 140 h in data set [3] (setting [6]).

As for `CCN(C)C=Nc1cc(C)c(Oc2ccccc2F)cc1Br` [Example I-03, N′-[2-bromo-4-(2-fluorophenoxy)-5-methylphenyl]-N-ethyl-N-methylimidoformamide], the results for the chromatographic logP in data set [1] (setting [4]) and in data set [1] (setting [7]) were 1.66 and 4.53, respectively. Besides, the half-life at 25 µg/well in data set [2] is 178 h. Also, the results for the half-life at 58.8 µg/mL in data set [3] (setting [5]) and in data set [3] (setting [6]) were 68 h and 51 h, respectively.

Regarding `CCN(C)C=Nc1cc(C)c(Oc2ccccc2Cl)cc1Br` [Example I-04, N′-[2-bromo-4-(2-chlorophenoxy)-5-methylphenyl]-N-ethyl-N-methylimidoformamide], the chromatographic logP in data set [1] (setting [4]) came to 1.84; in data set [1] (setting [7]), 4.97. Also, the half-life at 25 µg/well in data set [2] is above 200 h. The half-life at 58.8 µg/mL in data set [3] (setting [5]) is 64 h; in data set [3] (setting [6]) it was 58 h.

`CCN(C)C=Nc1cc(C)c(Oc2ccccc2Cl)cc1Cl` [Example I-05, N′-[2-chloro-4-(2-chlorophenoxy)-5-methylphenyl]-N-ethyl-N-methylimidoformamide]: in data set [1] (setting [4]), the chromatographic logP came to 1.58. Also, the results for the half-life at 58.8 µg/mL in data set [3] (setting [5]) and in data set [3] (setting [6]) were 51 h and 47 h, respectively.

Turning to `CCN(C)C=Nc1cc(C)c(Oc2ccccc2I)cc1Cl` [Example I-06, N′-[2-chloro-4-(2-iodophenoxy)-5-methylphenyl]-N-ethyl-N-methylimidoformamide], in data set [1] (setting [4]), the chromatographic logP turned out to be 1.78.

For the compound `CCN(C)C=Nc1cc(C)c(Oc2ccccc2Br)cc1Br` [Example I-07, N′-[2-bromo-4-(2-bromophenoxy)-5-methylphenyl]-N-ethyl-N-methylimidoformamide], in data set [1] (setting [4]), the chromatographic logP is 1.81. In addition, the half-life at 58.8 µg/mL in data set [3] (setting [5]) is 63 h; in data set [3] (setting [6]) it was 57 h.

For the compound `Cc1cc([N+](=O)[O-])c(C(F)F)cc1Oc1ccccc1F` [VI-02, 1-(Difluoromethyl)-5-(2-fluorophenoxy)-4-methyl-2-nitrobenzene], in data set [1] (setting [4]), the chromatographic logP came to 3.97.

For the compound `Cc1cc([N+](=O)[O-])c(Br)cc1Oc1ccccc1Cl` [VI-04, 4-Bromo-2-(2-chlorophenoxy)-1-methyl-5-nitrobenzene], the chromatographic logP in data set [1] (setting [4]) is 4.68.

For `Cc1cc(N)c(Br)cc1Oc1ccccc1Cl` [VIII-04, 2-Bromo-4-(2-chlorophenoxy)-5-methylaniline], the chromatographic logP in data set [1] (setting [7]) was found to be 3.53.
